Values joined by “and” are separate entries in the source; they are usually repeats but may differ in a detail not shown here. Equal entries are not always repeated.
How the values were obtained:
Format in all cases: biochemical
matriptase = molecular target: T1, matriptase (Homo sapiens, UniProt Q9Y5Y6); assay: Fluorescent kinetic enzyme inhibitor assay of matriptase; details: for IC50: Table 4.1
T1 construct: Charles Craik, UCSF (obtained from another laboratory)
T1 sequence (Q9Y5Y6 615-855 limits assumed): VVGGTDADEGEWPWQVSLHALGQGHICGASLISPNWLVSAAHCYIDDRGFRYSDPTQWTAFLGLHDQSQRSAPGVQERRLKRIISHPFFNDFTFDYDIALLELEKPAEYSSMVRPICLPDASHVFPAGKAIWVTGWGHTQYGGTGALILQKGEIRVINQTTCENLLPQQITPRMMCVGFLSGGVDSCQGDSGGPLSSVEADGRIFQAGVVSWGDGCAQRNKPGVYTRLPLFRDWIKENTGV
Protocol: Inhibitors (11-pt serial dilutions, 0-20 μM final concentration in reaction) were serially diluted in DMSO (2% DMSO final concentration) and then mixed with either recombinant serine protease domain of HGFA [Z. Han, P. K. Harris, D. E. Jones, R. Chugani, T. Kim, M. Agarwal, W. Shen, S. A. Wildman, J. W. Janetka, Acs Med Chem Lett 2014, 5, 1219-1224], matriptase (Charles Craik, UCSF) or hepsin* (#4776-SE-010, R&D Systems, Minneapolis, Minn.) in black 384 well plates (Corning #3575. Corning, N.Y.). […] The final substrate concentrations for all assays were at the Km for the respective enzymes. Changes in fluorescence (excitation at 380 nm and emission at 460 nm) were measured at room temperature over time in a Biotek Synergy 2 plate reader (Winnoski, Vt.). Using GraphPad Prism version 6.04 software program, (GraphPad Software, San Diego, Calif., www.graphpad.com), a four parameter curve fit was used to determine the inhibitor IC50s from a plot of the mean reaction velocity versus the inhibitor concentration. The IC50 values represent the average of three separate experimental determinations.

HGFA [1] = molecular target: T2, HGFA (Homo sapiens, UniProt Q04756); assay: Fluorescent kinetic enzyme inhibitor assay of HGFA; details: for Ki: Table 4.2, Boc-QLR-AMC substrate, read-out: HGFA Ki
T2 construct: His6 tag (N); seven amino acid spacer and seven amino acid TEV cleavage site (N); Honey Bee melittin signal peptide (N); made in house; host or cells: High 5 insect cells (baculovirus; virus raised in Sf9)
T2 sequence (Q04756 373-655): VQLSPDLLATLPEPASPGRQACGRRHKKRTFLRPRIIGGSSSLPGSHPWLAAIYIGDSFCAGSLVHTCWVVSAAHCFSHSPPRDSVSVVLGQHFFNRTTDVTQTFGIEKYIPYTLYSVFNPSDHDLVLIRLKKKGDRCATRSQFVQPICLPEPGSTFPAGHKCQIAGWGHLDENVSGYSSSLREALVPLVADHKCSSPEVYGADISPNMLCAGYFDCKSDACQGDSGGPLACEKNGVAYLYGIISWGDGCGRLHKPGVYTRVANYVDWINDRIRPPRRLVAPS
Summary of the method: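 Recombinant His-tagged HGFA residues 373-655 from insect cells, with substrate at Km. Inhibitors in 11-point dilutions, 0-20 μM final, 2% DMSO, fluorescence (ex 380/em 460 nm) followed over time at room temperature. IC50 from four-parameter fit of mean velocity, average of three experiments.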

HGFA [2] = molecular target: T2, HGFA; assay: Chromogenic kinetic enzyme inhibitor assay of HGFA; details: Table 4.1; chromogenic substrate Pefachrome FVIIa
Source text: This PCR product was cloned into the SfoI-HindIII sites of a modified pFastBac HT baculovirus expression vector (Addgene, Cambridge, Mass.). This vector contains a six amino His tag followed by a seven amino spacer and a seven amino acid TEV cleavage site placed immediately downstream of the Honey Bee melittin signal peptide. Using a modified Bac to Bac Expression System (Life Technologies, Carlsbad, Calif.), recombinant HGFA bacmids were obtained by transforming DH10Bac Escherichia coli cells. To obtain HGFA containing baculovirus, purified bacmids were transfected into Sf9 insect cells. After 5 days in culture at 27° C., media was harvested from transfected Sf9 cells. This media was used to prepare baculovirus infected insect cells (BIICs). These BIIICs were used to infect High 5 insect cells. Four days post infection, media was harvested and recombinant protein prepared as follows. Media was chilled to 4° C. and spun at 4000×g for 20 minutes (all subsequent steps were performed at 4° C. unless noted). […] Concentrated media was then buffer exchanged in two steps, five volumes of 50 mM Na-phosphate, 500 mM NaCl, pH 6.2, followed by five volumes of 50 mM Na-phosphate, 500 mM NaCl, pH 7.5. […] After mixing this slurry for 12 hours, nickel agarose beads were allowed to settle by gravity and then loaded into a column. Beads were washed with buffer (25 mM Na-phosphate, 500 mM NaCl, 25 mM imidazole, pH 8) and the bound protein eluted using (25 mM Na-phosphate, 500 mM NaCl, 250 mM imidazole, pH 8). Using a Amicon Ultra-4 Centrifugal filters (#UFC801008, Merck Millipore, Ltd., Tullagreen, Ireland), peak protein fractions were concentrated and run over a Superdex-200 10/300 GL column (GE Healthcare Life Sciences, Piscataway, N.J.) in 10 mM Tris, 200 mM NaCl, 0.2 mM EDTA, pH 8. HGFA containing fractions were pooled, concentrated, made 50% glycerol, and stored at minus 20° C. Protein was quantitated using a modified Lowry protein assay (#500-0006, Bio-Rad Laboratories, Hercules, Calif.).
Using Gen 5 2.00 software program (Biotek, Winnoski, Vt.), a four parameter curve fit was used to determine the inhibitor IC50s from a plot of the mean reaction velocity versus the inhibitor concentration. The IC50 values represent the average of three separate experimental determinations.

hepsin = molecular target: T3, hepsin (Homo sapiens, UniProt P05981); assay: Fluorescent kinetic enzyme inhibitor assay of hepsin; details: for IC50: Table 4.1; for Ki: Table 4.2, Boc-QAR-AMC substrate, read-out: Hepsin Ki
T3 construct: purchased R&D Systems 4776-SE-010
T3 sequence (P05981 163-417 limits assumed): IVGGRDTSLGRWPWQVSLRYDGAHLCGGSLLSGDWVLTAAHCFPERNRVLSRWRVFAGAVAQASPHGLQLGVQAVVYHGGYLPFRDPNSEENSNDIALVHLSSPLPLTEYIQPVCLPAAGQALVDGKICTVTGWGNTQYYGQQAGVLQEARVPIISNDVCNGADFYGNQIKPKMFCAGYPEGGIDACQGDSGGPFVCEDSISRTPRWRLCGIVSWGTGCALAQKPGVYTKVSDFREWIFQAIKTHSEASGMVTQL
T3 sequence (P05981 45-162 partner limits assumed): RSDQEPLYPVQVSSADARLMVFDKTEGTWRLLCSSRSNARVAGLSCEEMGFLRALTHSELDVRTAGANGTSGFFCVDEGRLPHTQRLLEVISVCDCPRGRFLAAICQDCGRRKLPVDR
Summary of the method: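 Fluorescence (ex 380/em 460 nm) followed kinetically at room temperature; IC50 from four-parameter fit of mean velocity versus concentration, averaged over three experiments.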

Compound | Ki (HGFA [1]) [µM] | IC50 (HGFA [2]) | further results
CC(=O)N[C@@H](CC(C)C)C(=O)N[C@@H](CC(C)C)C(=O)N[C@H](C=O)CCCNC(=N)N [Leupeptin, reference compound] | 0.188 | 0.535 µM | IC50 (matriptase): 1.15 µM; fold selective for HGFA over matriptase (HGFA [1]): 3 fold; fold more potent for hepsin versus HGFA (hepsin): 3 fold; IC50 (hepsin): 0.256 µM
CC(=O)N[C@@H](CCCNC(=N)N)C(=O)N[C@@H](CCC(N)=O)C(=O)N[C@@H](CC(C)C)C(=O)N[C@H](CCCNC(=N)N)C(=O)c1nccs1 [Compound 5e-1, Ac-RQLdR-kt] |  | 3.12 µM | 
CC(=O)N[C@@H](Cc1c[nH]c2ccccc12)C(=O)N[C@@H](CCC(N)=O)C(=O)N[C@@H](CC(C)C)C(=O)N[C@H](CCCNC(=N)N)C(=O)c1nccs1 [Compound 5b-1, Ac-WQLdR-kt] |  | 7.12 µM | 
CC(=O)N[C@@H](CCCCN)C(=O)N[C@@H](Cc1c[nH]cn1)C(=O)N[C@@H](CC(C)C)C(=O)N[C@@H](CCCNC(=N)N)C(=O)c1nccs1 [Compound 5a, Ac-KHLR(SEQ ID NO: 2)-kt] | 0.096 | 0.65 µM | 
CC(=O)N[C@@H](CO)C(=O)N[C@@H](Cc1c[nH]cn1)C(=O)N[C@@H](CC(C)C)C(=O)N[C@H](CCCNC(=N)N)C(=O)c1nccs1 [Compound 6a-1, Ac-SHLdR-kt] |  | 21.2 µM | 
CC(=O)N[C@@H](CCCCN)C(=O)N[C@@H](CCC(N)=O)C(=O)N[C@@H](Cc1ccccc1)C(=O)N[C@H](CCCNC(=N)N)C(=O)c1nccs1 [Compound 5c-1, Ac-KQFdR-kt] |  | 7.82 µM | 
CC(=O)N[C@@H](CC(N)=O)C(=O)N[C@@H](CCCCN)C(=O)N[C@@H](CC(C)C)C(=O)N[C@@H](CCCNC(=N)N)C(=O)c1nccs1 [Compound 6d, Ac-NKLR(SEQ ID NO: 14)-kt] | 0.079 | 0.397 µM and 0.4 µM | Ki (hepsin): 0.00141 µM
CC(=O)N[C@@H](CC(C)C)C(=O)N[C@@H](CC(C)C)C(=O)N[C@@H](CCCNC(=N)N)C(=O)c1nccs1 [Ac-LLR-kt] | 0.253 | 1.48 µM | 
CC(=O)N[C@@H](CCCCN)C(=O)N[C@@H](CCC(N)=O)C(=O)N[C@@H](CC(C)C)C(=O)N[C@H](CCCNC(=N)N)C(=O)c1nccs1 [Compound 5-1, Ac-KQLdR-kt] |  | 5.53 µM | 
CC(=O)N[C@@H](CO)C(=O)N[C@H](CCCNC(=N)N)C(=O)N[C@@H](CC(C)C)C(=O)N[C@H](CCCNC(=N)N)C(=O)c1nccs1 [Compound 6e-3, Ac-SdRLdR-kt] |  | 11.9 µM | 
CC(C)C[C@H](NC(=O)[C@H](CCC(N)=O)NC(=O)[C@@H](N)CCCCN)C(=O)N[C@H](CCCNC(=N)N)C(=O)c1nccs1 [H-KQLdR-kt] |  | 11.3 µM | 
CC(=O)N[C@@H](CO)C(=O)N[C@@H](Cc1c[nH]cn1)C(=O)N[C@@H](CC(C)C)C(=O)N[C@@H](CCCNC(=N)N)C(=O)c1nccs1 [Compound 6a, Ac-SHLR(SEQ ID NO: 11)-kt] | 0.332 | 1.8 µM | IC50 (matriptase): 0.56 µM; IC50 (hepsin): 0.005 µM
CC(=O)N[C@@H](CCCCN)C(=O)N[C@@H](Cc1c[nH]cn1)C(=O)N[C@@H](CC(C)C)C(=O)N[C@H](CCCNC(=N)N)C(=O)c1nccs1 [Compound 5a-1, Ac-KHLdR-kt] |  | 10.9 µM | 
CC(=O)N[C@@H](CO)C(=O)N[C@@H](CCCCN)C(=O)N[C@@H](CC(C)C)C(=O)N[C@H](CCCNC(=N)N)C(=O)c1nccs1 [Compound 6-1, Ac-SKLdR-kt] |  | 6.31 µM | 
CC(=O)N[C@@H](CO)C(=O)N[C@@H](CCCCN)C(=O)N[C@@H](Cc1ccccc1)C(=O)N[C@H](CCCNC(=N)N)C(=O)c1nccs1 [Compound 6c-1, Ac-SKFdR-kt] |  | 10.8 µM | 

More lines, in order of falling IC50 (HGFA [2]), values ahead:

Ki (HGFA [1]) [µM] | IC50 (HGFA [2]) | Compound | further results
0.103 | 0.567 µM | CC(=O)N[C@H](C(=O)N[C@@H](CCCCN)C(=O)N[C@@H](CC(C)C)C(=O)N[C@@H](CCCNC(=N)N)C(=O)c1nccs1)[C@@H](C)O [Compound 6f, Ac-TKLR(SEQ ID NO: 16)-kt] | 
0.065 | 0.471 µM | CC(=O)N[C@@H](Cc1c[nH]c2ccccc12)C(=O)N[C@@H](CCC(N)=O)C(=O)N[C@@H](CC(C)C)C(=O)N[C@@H](CCCNC(=N)N)C(=O)c1nccs1 [Compound 5b, Ac-WQLR(SEQ ID NO: 3)-kt] | IC50 (matriptase): 0.049 µM; IC50 (hepsin): 0.001 µM; Ki (hepsin): 0.00021 µM
 | 0.44 µM | CC(C)C[C@H](NC(=O)[C@H](CCC(N)=O)NC(=O)[C@@H](N)CCCCN)C(=O)N[C@@H](CCCNC(=N)N)C(=O)c1nccs1 [H-KQLR(SEQ ID NO: 1)-Kt] | 
0.017 | 0.37 µM | CC(=O)N[C@@H](CCCNC(=N)N)C(=O)N[C@@H](CCCCN)C(=O)N[C@@H](CC(C)C)C(=O)N[C@@H](CCCNC(=N)N)C(=O)c1nccs1 [Compound 6h, Ac-RKLR(SEQ ID NO: 18)-kt] | 
0.08 | 0.33 µM | CC(=O)N[C@@H](CCCCN)C(=O)N[C@@H](Cc1ccccc1)C(=O)N[C@@H](CC(C)C)C(=O)N[C@@H](CCCNC(=N)N)C(=O)c1nccs1 [Compound 5d, Ac-KFLR(SEQ ID NO: 5)-kt] | IC50 (matriptase): 0.035 µM; Ki (matriptase; Table 4.2, Boc-QAR-AMC substrate): 0.015 µM; selectivity among HGFA, matriptase and hepsin (HGFA [1]): HGFA selectivity over both hepsin and matriptase; IC50 (hepsin): 0.022 µM; Ki (hepsin): 0.0021 µM
0.056 | 0.32 µM | CC(=O)N[C@@H](Cc1c[nH]c2ccccc12)C(=O)N[C@@H](CCCCN)C(=O)N[C@@H](CC(C)C)C(=O)N[C@@H](CCCNC(=N)N)C(=O)c1nccs1 [Compound 6b, Ac-WKLR(SEQ ID NO: 12)-kt] | IC50 (matriptase): 0.097 µM; IC50 (hepsin): 0.004 µM
0.182 | 0.18 µM | CC(=O)N[C@@H](CO)C(=O)N[C@@H](CCC(N)=O)C(=O)N[C@@H](CC(C)C)C(=O)N[C@@H](CCCNC(=N)N)C(=O)c1nccs1 [Compound 5f, Ac-SQLR(SEQ ID NO: 7)-kt] | 
